{
  "source": "patent US4960790A",
  "about": "“Derivatives of taxol, pharmaceutical compositions thereof and methods for the preparation thereof” (University of Kansas, priority 1989, dated 1990)",
  "key": {"microtubule assembly": {"tested_on": "microtubule assembly", "assay": "In vitro microtubule assembly kinetics", "assay_type": "biochemical", "conditions": "rank order", "procedure": "(A) In vitro Microtubule Assembly Kinetics Studies\nThe microtubule assembly study was conducted using both 2' and 7-derivatives according to the in vitro procedures disclosed, for example, in Mellado et al., Biochemical and Biophysical Research Communications, Vol. 124, No. 2 (1984), pp. 329-336; Magri et al., J. Org. Chem., 51, 797-802 (1986); and Parness et al., Biochemical and Biophysical Research Communications, Vol. 105, No. 3, pp. 1082-1091 (1982)."}, "tumors": {"tested_on": "tumors", "conditions": "in words; cited from earlier work"}, "microtubules": {"tested_on": "microtubules", "conditions": "in vitro / cells, in words; cited from earlier work"}, "[1]": {"tested_on": "human mammary carcinoma MX-1 xenograft", "assay": "Subrenal capsule human mammary carcinoma MX-1 xenograft in mice", "conditions": "for ANML BODY WT DIFF (test minus control) / TEST BODY WT CHG / # OF ANMLS ALIVE CALC/TOTAL / Average tumor WEIGHT CHANGE (DELTA) / Average tumor weight, FINAL: Q4D; for ANML BODY WT DIFF (test minus control) / TEST BODY WT CHG: Day 1 to 11; for # OF ANMLS ALIVE CALC/TOTAL / Average tumor WEIGHT CHANGE (DELTA) / Average tumor weight, FINAL / % T/C: Day 11; for % T/C: Q4D Days 1, 5, 9", "description": "The procedures followed are those described at pages 23-24 of NIH Publication No. 84-2635, In Vivo Cancer Model (February 1984).\nIn the procedure, test groups of mice (6 mice per test group) and control groups of 12 mice per group are utilized. A tumor fragment (human mammary carcinoma MX-1 xenograft), is implanted under the membranous covering of the kidney of each mouse.\nDay 0: Anesthetize animals. Record body weight (Weigh Day 1). Implant tumor, measure and record. Randomize animals after they recover from the anesthetic. Run bacterial cultures. Determine solubilities of test agent. Record deaths daily.\nDay 1: Check cultures. Discard experiment if contaminated. Prepare test materials. Initiate test agent injections (in the nape of the neck) based on individual body weight. Treatment is Q4D on Days 1, 5, and 9. Prepare test agent fresh on each injection day and administer based on individual body weight for that day.\nDays 5 and 9: Prepare test agent fresh on each injection day and administer based on individual body weight for that day.\nDay 11: End and evaluate experiment. Record body weights (Weigh Day 2). Measure tumor in OMU's (Ocular Micrometer Unit--10 OMU's=1 mm) and record.\nThe parameter measured is mean tumor weight change (delta) based on length and width measurements in millimeters. Mean animal body weights are computed for Day 1 and Day 11, compute T/C for all test groups with>65% survivors on Day 11. An excessive body weight change difference (test minus control) may also be used in evaluating toxicity. The dimensions are measured and recorded in Ocular Micrometer Units (OMU). A computer is utilized for the following:\n(1) Converts OMU's to millimeters (mm).\n(2) Calculates tumor weights (mgs) from tumor dimensions (mm×mm) following the formula for the volume of a prolate ellipsoid: [formula] (3) Calculates the change (delta) in mean tumor weight for each group of mice:\nChange in Mean Tumor Weight=Mean Tumor WeightFINAL -Mean Tumor WeightINITIAL.\n(4) Calculates the change (delta) in mean tumor weight for test (T) and control (C) groups.\n(5) Calculates T/C% for all test groups with>65% survivors on Final Evaluation Day: [formula]"}, "B-16 melanoma cells": {"tested_on": "B-16 melanoma cells", "assay": "In vitro B16 melanoma cell proliferation", "assay_type": "cell-based", "conditions": "rank order", "procedure": "These studies were conducted according to standard procedures as described in Donoso and Himes, Cancer Biochem. Biophysics, vol. 7, (1984), p. 133."}, "[2]": {"conditions": "in words; cited from earlier work"}},
  "data": [
    {"molecule": "CC(=O)O[C@H]1C(=O)[C@@]2(C)[C@H]([C@H](OC(=O)c3ccccc3)[C@]3(O)C[C@H](OC(=O)[C@H](O)[C@@H](NC(=O)c4ccccc4)c4ccccc4)C(C)=C1C3(C)C)[C@]1(OC(C)=O)CO[C@@H]1C[C@@H]2O", "note": "[Taxol]", "values": [
      {"measurement": "Ability to assemble microtubules (order)", "setting": "microtubule assembly", "value": "taxol >7-(N,N-dimethylglycyl)taxol(11)>2'(N,N-diethylaminopropionyl)taxol(8)>2'(N,N-dimethylglycyl)taxol(2)"},
      {"measurement": "Antitumor activity", "setting": "tumors", "value": "potent antitumor activity against a wide variety of tumors"},
      {"measurement": "Effect on microtubules", "setting": "microtubules", "value": "promotes the assembly of microtubules but inhibits their disassembly"},
      {"measurement": "ANML BODY WT DIFF (test minus control)", "setting": "[1]; Table 1, 4.45 mg/kg", "value": ".5"},
      {"measurement": "TEST BODY WT CHG", "setting": "[1]; Table 1, 4.45 mg/kg", "value": -1.2},
      {"measurement": "# OF ANMLS ALIVE CALC/TOTAL", "setting": "[1]; Table 1, 4.45 mg/kg", "value": "5/5"},
      {"measurement": "Average tumor WEIGHT CHANGE (DELTA)", "setting": "[1]; Table 1, 4.45 mg/kg", "value": "-.79 MGS"},
      {"measurement": "Average tumor weight, FINAL", "setting": "[1]; Table 1, 4.45 mg/kg", "value": ".00 MGS"},
      {"measurement": "ANML BODY WT DIFF (test minus control)", "setting": "[1]; Table 1, 6.67 mg/kg", "value": ".2"},
      {"measurement": "TEST BODY WT CHG", "setting": "[1]; Table 1, 6.67 mg/kg", "value": -1.5},
      {"measurement": "# OF ANMLS ALIVE CALC/TOTAL", "setting": "[1]; Table 1, 6.67 mg/kg", "value": "5/5"},
      {"measurement": "Average tumor WEIGHT CHANGE (DELTA)", "setting": "[1]; Table 1, 6.67 mg/kg", "value": "-.74 MGS"},
      {"measurement": "Average tumor weight, FINAL", "setting": "[1]; Table 1, 6.67 mg/kg", "value": ".00 MGS"},
      {"measurement": "% T/C", "setting": "[1]; Table 1, 10.00 mg/kg", "value": -84, "unit": "%"},
      {"measurement": "ANML BODY WT DIFF (test minus control)", "setting": "[1]; Table 1, 10.00 mg/kg", "value": "-.3"},
      {"measurement": "TEST BODY WT CHG", "setting": "[1]; Table 1, 10.00 mg/kg", "value": -2.0},
      {"measurement": "# OF ANMLS ALIVE CALC/TOTAL", "setting": "[1]; Table 1, 10.00 mg/kg", "value": "6/6"},
      {"measurement": "Average tumor WEIGHT CHANGE (DELTA)", "setting": "[1]; Table 1, 10.00 mg/kg", "value": "-.49 MGS"},
      {"measurement": "Average tumor weight, FINAL", "setting": "[1]; Table 1, 10.00 mg/kg", "value": ".09 MGS"},
      {"measurement": "ANML BODY WT DIFF (test minus control)", "setting": "[1]; Table 1, 15.00 mg/kg", "value": -2.5},
      {"measurement": "TEST BODY WT CHG", "setting": "[1]; Table 1, 15.00 mg/kg", "value": -4.2},
      {"measurement": "# OF ANMLS ALIVE CALC/TOTAL", "setting": "[1]; Table 1, 15.00 mg/kg", "value": "6/6"},
      {"measurement": "Average tumor WEIGHT CHANGE (DELTA)", "setting": "[1]; Table 1, 15.00 mg/kg", "value": "-.81 MGS"},
      {"measurement": "Average tumor weight, FINAL", "setting": "[1]; Table 1, 15.00 mg/kg", "value": ".00 MGS"},
      {"measurement": "% T/C", "setting": "[1]; Table 1, 22.40 mg/kg", "value": "TOX"},
      {"measurement": "ANML BODY WT DIFF (test minus control)", "setting": "[1]; Table 1, 22.40 mg/kg", "value": "-.9"},
      {"measurement": "TEST BODY WT CHG", "setting": "[1]; Table 1, 22.40 mg/kg", "value": -2.6},
      {"measurement": "# OF ANMLS ALIVE CALC/TOTAL", "setting": "[1]; Table 1, 22.40 mg/kg", "value": "3/6"},
      {"measurement": "Average tumor weight, FINAL", "setting": "[1]; Table 1, 22.40 mg/kg", "value": ".00 MGS"},
      {"measurement": "% T/C", "setting": "[1]; Table 2, 1.88 mg/kg", "value": 5, "unit": "%"},
      {"measurement": "ANML BODY WT DIFF (test minus control)", "setting": "[1]; Table 2, 1.88 mg/kg", "value": 3.0},
      {"measurement": "TEST BODY WT CHG", "setting": "[1]; Table 2, 1.88 mg/kg", "value": -1.0},
      {"measurement": "# OF ANMLS ALIVE CALC/TOTAL", "setting": "[1]; Table 2, 1.88 mg/kg", "value": "4/5"},
      {"measurement": "Average tumor WEIGHT CHANGE (DELTA)", "setting": "[1]; Table 2, 1.88 mg/kg", "value": ".71 MGS"},
      {"measurement": "Average tumor weight, FINAL", "setting": "[1]; Table 2, 1.88 mg/kg", "value": 1.51, "unit": "MGS"},
      {"measurement": "ANML BODY WT DIFF (test minus control)", "setting": "[1]; Table 2, 3.75 mg/kg", "value": 1.1},
      {"measurement": "TEST BODY WT CHG", "setting": "[1]; Table 2, 3.75 mg/kg", "value": -2.9},
      {"measurement": "# OF ANMLS ALIVE CALC/TOTAL", "setting": "[1]; Table 2, 3.75 mg/kg", "value": "4/5"},
      {"measurement": "Average tumor WEIGHT CHANGE (DELTA)", "setting": "[1]; Table 2, 3.75 mg/kg", "value": "-.71 MGS"},
      {"measurement": "Average tumor weight, FINAL", "setting": "[1]; Table 2, 3.75 mg/kg", "value": ".00 MGS"},
      {"measurement": "% T/C", "setting": "[1]; Table 2, 7.50 mg/kg", "value": "TOX"},
      {"measurement": "ANML BODY WT DIFF (test minus control)", "setting": "[1]; Table 2, 7.50 mg/kg", "value": 2.3},
      {"measurement": "TEST BODY WT CHG", "setting": "[1]; Table 2, 7.50 mg/kg", "value": -1.7},
      {"measurement": "# OF ANMLS ALIVE CALC/TOTAL", "setting": "[1]; Table 2, 7.50 mg/kg", "value": "3/5"},
      {"measurement": "Average tumor weight, FINAL", "setting": "[1]; Table 2, 7.50 mg/kg", "value": ".00 MGS"},
      {"measurement": "% T/C", "setting": "[1]; Table 2, 15.00 mg/kg", "value": "TOX"},
      {"measurement": "# OF ANMLS ALIVE CALC/TOTAL", "setting": "[1]; Table 2, 15.00 mg/kg", "value": "0/5"},
      {"measurement": "Order of effectiveness in B-16 melanoma cell proliferation study", "setting": "B-16 melanoma cells", "value": "taxol>2'-(N,N-dimethylglycyl)taxol>2'-(N,N-diethylaminopropionyl)taxol>7-(N,N-dimethylglycyl)taxol"},
      {"measurement": "Water solubility", "setting": "[2]", "value": "only very slightly soluble in water"}
    ]}
  ]
}
